Reference: patent publication US20070128217A1 (priority 2003, published 2007)

Experiments:
[1] = tested on: control sera (pooled serum of ten healthy LUMC hospital workers; commercial negative donor pooled serum from the Dutch bloodbank); type: binding, human; set-up: Binding of Control serum LUMC to linear peptides / Binding of Control serum Blood-bank to linear peptides / Binding of Control serum LUMC to looped peptides / Binding of Control Serum Blood-Bank to Looped peptides / Binding of Control serum LUMC to linear peptides of the protein M of SARS-CoV Urbani / Binding of Control serum Blood-bank to linear peptides of the protein M of SARS-CoV Urbani / Binding of Control serum LUMC to looped peptides of the protein M of SARS-CoV Urbani / Binding of Control Serum Blood-Bank to Looped peptides of the protein M of SARS-CoV Urbani: unit not given here
[2] = tested on: rabbit serum obtained by immunizing a rabbit with the SARS-CoV strain Frankfurt 1; type: binding; set-up: Binding of a rabbit serum to linear peptides / Binding of a rabbit serum to looped peptides / Rabbit serum linear peptides / Rabbit serum looped peptides / Binding of a rabbit serum to linear peptides of protein N of SARS-CoV Urbani (Rabbit serum linear peptides) / Binding of a rabbit serum to looped/cyclic peptides of protein N of SARS-CoV Urbani (Rabbit serum looped peptides): unit not given here
[3] = tested on: antibodies in sera from SARS patients (sera 1a, 1b, 2, 6, 37, 62, London, SARS-yellow, SARS-green); type: binding, human; set-up: Binding of serum 6 to linear peptides of protein X1 of SARS-CoV Urbani / Binding of serum 37 to linear peptides of protein X1 of SARS-CoV Urbani / Binding of serum 6 to looped/cyclic peptide (PEPSCAN-ELISA) / Binding of serum 37 to looped/cyclic peptide (PEPSCAN-ELISA) / Binding of serum 37 to looped/cyclic peptides of protein X1 of SARS-CoV Urbani / Binding of serum 6 to linear peptides of protein X2 / Binding of serum 37 to linear peptides of protein X2 / Binding of serum 37 to looped/cyclic peptides of protein X2 of SARS-CoV Urbani / Binding of serum 6 to linear peptides of protein M of SARS-CoV Urbani / Binding of serum 37 to linear peptides of protein M of SARS-CoV Urbani / Binding of serum 6 to looped/cyclic peptides of protein M of SARS-CoV Urbani / Binding of serum 37 to looped/cyclic peptides of protein M of SARS-CoV Urbani / Binding of serum 6 to linear peptides of protein X3 of SARS-CoV Urbani / Binding of serum 37 to linear peptides of protein X3 of SARS-CoV Urbani / Binding of serum 37 to looped/cyclic peptides of protein X3 of SARS-CoV Urbani / Binding of serum 6 to linear peptides of protein X4 of SARS-CoV Urbani / Binding of serum 37 to linear peptides of protein X4 of SARS-CoV Urbani / Binding of serum 37 to looped/cyclic peptides of protein X4 of SARS-CoV Urbani / Binding of serum 6 to linear peptides of protein X5 of SARS-CoV Urbani / Binding of serum 37 to linear peptides of protein X5 of SARS-CoV Urbani / Binding of serum 37 to looped/cyclic peptides of protein X5 of SARS-CoV Urbani / Binding of serum 6 to linear peptides of protein N of SARS-CoV Urbani / Binding of serum 37 to linear peptides of protein N of SARS-CoV Urbani / Binding of serum 6 to linear peptide (PEPSCAN-ELISA) / Binding of serum 1a to looped/cyclic peptides of protein N of SARS-CoV Urbani / Binding of serum 1b to looped/cyclic peptides of protein N of SARS-CoV Urbani / Binding of serum 2 to looped/cyclic peptides of protein N of SARS-CoV Urbani / Binding of serum 6 to looped/cyclic peptides of protein N of SARS-CoV Urbani / Binding of serum 37 to looped/cyclic peptides of protein N of SARS-CoV Urbani / Binding of serum 62 to looped/cyclic peptides of protein N of SARS-CoV Urbani / Binding of serum London to looped/cyclic peptides of protein N of SARS-CoV Urbani / Binding of serum SARS-green to looped/cyclic peptides of protein N of SARS-CoV Urbani: unit not given here

## LSYFVASFRLFARTR
[1]
  Binding of Control Serum Blood-Bank to Looped peptides of the protein M of SARS-CoV Urbani: 0.8
  Binding of Control serum Blood-bank to linear peptides of the protein M of SARS-CoV Urbani: 0.6
  Binding of Control serum LUMC to linear peptides of the protein M of SARS-CoV Urbani: 0.3
  Binding of Control serum LUMC to looped peptides of the protein M of SARS-CoV Urbani: 1.0
[2]
  Rabbit serum linear peptides: 0.4
  Rabbit serum looped peptides: 0.6
[3]
  Binding of serum 1a to linear peptides of protein M of SARS-CoV Urbani: 0.7
  Binding of serum 1b to linear peptides of protein M of SARS-CoV Urbani: 0.4
  Binding of serum 2 to linear peptides of protein M of SARS-CoV Urbani: 0.4
  Binding of serum 6 to linear peptides of protein M of SARS-CoV Urbani: 0.4
  Binding of serum 37 to linear peptides of protein M of SARS-CoV Urbani: 0.6
  Binding of serum 62 to linear peptides of protein M of SARS-CoV Urbani: 0.7
  Binding of serum London to linear peptides of protein M of SARS-CoV Urbani: 0.3
  Binding of serum SARS-green to linear peptides of protein M of SARS-CoV Urbani: 0.2
  Binding of serum SARS-yellow to linear peptides of protein M of SARS-CoV Urbani: 0.1
  Recognition of the peptide by sera of SARS-CoV infected individuals, and form (linear, looped/cyclic) in which it is recognized: recognized in looped/cyclic form

## LDVIISSIVRQLFKP
[1]
  Binding of Control Serum Blood-Bank to Looped peptides of the protein X3 of SARS-CoV Urbani: 0.7
  Binding of Control serum Blood-bank to linear peptides of the protein X3 of SARS-CoV Urbani: 0.6
  Binding of Control serum LUMC to linear peptides of the protein X3 of SARS-CoV Urbani: 0.4
  Binding of Control serum LUMC to looped peptides of the protein X3 of SARS-CoV Urbani: 0.8
[2]
  Rabbit serum linear peptides: 0.2
  Rabbit serum looped peptides: 0.0
[3]
  Binding of serum 1a to linear peptides of protein X3 of SARS-CoV Urbani: 0.8
  Binding of serum 1a to looped/cyclic peptides of protein X3 of SARS-CoV Urbani: 0.6
  Binding of serum 1b to linear peptides of protein X3 of SARS-CoV Urbani: 0.3
  Binding of serum 1b to looped/cyclic peptides of protein X3 of SARS-CoV Urbani: 0.3
  Binding of serum 2 to linear peptides of protein X3 of SARS-CoV Urbani: 0.9
  Binding of serum 2 to looped/cyclic peptides of protein X3 of SARS-CoV Urbani: 0.5
  Binding of serum 6 to linear peptides of protein X3 of SARS-CoV Urbani: 0.3
  Binding of serum 6 to looped/cyclic peptides of protein X3 of SARS-CoV Urbani: 0.4
  Binding of serum 37 to linear peptides of protein X3 of SARS-CoV Urbani: 0.7
  Binding of serum 37 to looped/cyclic peptides of protein X3 of SARS-CoV Urbani: 0.5
  Binding of serum 62 to linear peptides of protein X3 of SARS-CoV Urbani: 0.6
  Binding of serum 62 to looped/cyclic peptides of protein X3 of SARS-CoV Urbani: 0.5
  Binding of serum London to linear peptides of protein X3 of SARS-CoV Urbani: 0.5
  Binding of serum London to looped/cyclic peptides of protein X3 of SARS-CoV Urbani: 0.2
  Binding of serum SARS-green to linear peptides of protein X3 of SARS-CoV Urbani: 0.4
  Binding of serum SARS-green to looped/cyclic peptides of protein X3 of SARS-CoV Urbani: 0.2
  Binding of serum SARS-yellow to linear peptides of protein X3 of SARS-CoV Urbani: 0.1
  Binding of serum SARS-yellow to looped/cyclic peptides of protein X3 of SARS-CoV Urbani: 0.3

## CIVGLMWLSYFVASF
[1]
  Binding of Control Serum Blood-Bank to Looped peptides of the protein M of SARS-CoV Urbani: 0.6
  Binding of Control serum Blood-bank to linear peptides of the protein M of SARS-CoV Urbani: 0.4
  Binding of Control serum LUMC to linear peptides of the protein M of SARS-CoV Urbani: 0.5
  Binding of Control serum LUMC to looped peptides of the protein M of SARS-CoV Urbani: 0.7
[2]
  Rabbit serum linear peptides: 0.1
  Rabbit serum looped peptides: 0.3
[3]
  Binding of serum 1a to linear peptides of protein M of SARS-CoV Urbani: 0.7
  Binding of serum 1a to looped/cyclic peptides of protein M of SARS-CoV Urbani: 0.5
  Binding of serum 1b to linear peptides of protein M of SARS-CoV Urbani: 0.5
  Binding of serum 1b to looped/cyclic peptides of protein M of SARS-CoV Urbani: 0.2
  Binding of serum 2 to linear peptides of protein M of SARS-CoV Urbani: 0.3
  Binding of serum 2 to looped/cyclic peptides of protein M of SARS-CoV Urbani: 0.4
  Binding of serum 6 to linear peptides of protein M of SARS-CoV Urbani: 0.3
  Binding of serum 6 to looped/cyclic peptides of protein M of SARS-CoV Urbani: 0.4
  Binding of serum 37 to linear peptides of protein M of SARS-CoV Urbani: 0.4
  Binding of serum 37 to looped/cyclic peptides of protein M of SARS-CoV Urbani: 0.6
  Binding of serum 62 to linear peptides of protein M of SARS-CoV Urbani: 0.4
  Binding of serum 62 to looped/cyclic peptides of protein M of SARS-CoV Urbani: 0.4
  Binding of serum London to linear peptides of protein M of SARS-CoV Urbani: 0.3
  Binding of serum London to looped/cyclic peptides of protein M of SARS-CoV Urbani: 0.2
  Binding of serum SARS-green to linear peptides of protein M of SARS-CoV Urbani: 0.3
  Binding of serum SARS-green to looped/cyclic peptides of protein M of SARS-CoV Urbani: 0.0
  Binding of serum SARS-yellow to linear peptides of protein M of SARS-CoV Urbani: 0.1
  Binding of serum SARS-yellow to looped/cyclic peptides of protein M of SARS-CoV Urbani: 0.5

## LRARSVSPKLFIRQE
[1]
  Binding of Control Serum Blood-Bank to Looped peptides: 0.6
  Binding of Control serum Blood-bank to linear peptides: 0.6
  Binding of Control serum LUMC to linear peptides: 0.6
  Binding of Control serum LUMC to looped peptides: 0.7
[2]
  Recognition of the peptide by the rabbit serum: recognized
[3]
  Binding of serum 1a to linear peptides of protein X4 of SARS-CoV Urbani: 0.7
  Binding of serum 1a to looped/cyclic peptides of protein X4 of SARS-CoV Urbani: 0.8
  Binding of serum 1b to linear peptides of protein X4 of SARS-CoV Urbani: 0.6
  Binding of serum 1b to looped/cyclic peptides of protein X4 of SARS-CoV Urbani: 0.6
  Binding of serum 2 to linear peptides of protein X4 of SARS-CoV Urbani: 0.5
  Binding of serum 2 to looped/cyclic peptides of protein X4 of SARS-CoV Urbani: 0.6
  Binding of serum 6 to linear peptides of protein X4 of SARS-CoV Urbani: 0.8
  Binding of serum 6 to looped/cyclic peptides of protein X4 of SARS-CoV Urbani: 0.8
  Binding of serum 37 to linear peptides of protein X4 of SARS-CoV Urbani: 0.7
  Binding of serum 37 to looped/cyclic peptides of protein X4 of SARS-CoV Urbani: 0.7
  Binding of serum 62 to linear peptides of protein X4 of SARS-CoV Urbani: 0.8
  Binding of serum 62 to looped/cyclic peptides of protein X4 of SARS-CoV Urbani: 0.7
  Binding of serum London to linear peptides of protein X4 of SARS-CoV Urbani: 0.8
  Binding of serum London to looped/cyclic peptides of protein X4 of SARS-CoV Urbani: 0.4
  Binding of serum SARS-green to linear peptides of protein X4 of SARS-CoV Urbani: 0.6
  Binding of serum SARS-green to looped/cyclic peptides of protein X4 of SARS-CoV Urbani: 0.6
  Binding of serum SARS-yellow to linear peptides of protein X4 of SARS-CoV Urbani: 0.3
  Binding of serum SARS-yellow to looped/cyclic peptides of protein X4 of SARS-CoV Urbani: 0.7

## CELYHYQECVRGTTV
[1]
  Binding of Control Serum Blood-Bank to Looped peptides: 0.5
  Binding of Control serum Blood-bank to linear peptides: 0.5
  Binding of Control serum LUMC to linear peptides: 0.5
  Binding of Control serum LUMC to looped peptides: 0.6
[2]
  Rabbit serum linear peptides: 0.4
  Rabbit serum looped peptides: 0.2
[3]
  Binding of serum 1a to linear peptides of protein X4 of SARS-CoV Urbani: 0.8
  Binding of serum 1a to looped/cyclic peptides of protein X4 of SARS-CoV Urbani: 0.8
  Binding of serum 1b to linear peptides of protein X4 of SARS-CoV Urbani: 0.7
  Binding of serum 1b to looped/cyclic peptides of protein X4 of SARS-CoV Urbani: 0.4
  Binding of serum 2 to linear peptides of protein X4 of SARS-CoV Urbani: 0.5
  Binding of serum 2 to looped/cyclic peptides of protein X4 of SARS-CoV Urbani: 0.8
  Binding of serum 6 to linear peptides of protein X4 of SARS-CoV Urbani: 0.6
  Binding of serum 6 to looped/cyclic peptides of protein X4 of SARS-CoV Urbani: 0.5
  Binding of serum 37 to linear peptides of protein X4 of SARS-CoV Urbani: 0.9
  Binding of serum 37 to looped/cyclic peptides of protein X4 of SARS-CoV Urbani: 0.8
  Binding of serum 62 to linear peptides of protein X4 of SARS-CoV Urbani: 0.8
  Binding of serum 62 to looped/cyclic peptides of protein X4 of SARS-CoV Urbani: 0.6
  Binding of serum London to linear peptides of protein X4 of SARS-CoV Urbani: 0.9
  Binding of serum London to looped/cyclic peptides of protein X4 of SARS-CoV Urbani: 0.3
  Binding of serum SARS-green to linear peptides of protein X4 of SARS-CoV Urbani: 0.7
  Binding of serum SARS-green to looped/cyclic peptides of protein X4 of SARS-CoV Urbani: 0.2
  Binding of serum SARS-yellow to linear peptides of protein X4 of SARS-CoV Urbani: 0.6
  Binding of serum SARS-yellow to looped/cyclic peptides of protein X4 of SARS-CoV Urbani: 0.4
